Measurements published in ChEMBL document CHEMBL5725862, “PRMT5 inhibitors and uses thereof” (2018).

Experiment: PRMT5 Biochemical Assay: The assays were all performed in a buffer consisting of 20 mM Bicine (pH=7.6), 1 mM TCEP, 0.005% BSG, and 0.002% Tween20, prepared on the day of use. Compounds in 100% DMSO (1 ul) were spotted into a polypropylene 384-well V-bottom plates (Greiner) using a Platemate Plus outfitted with a 384-channel head (Thermo Scientific). DMSO (1 ul) was added to Columns 11, 12, 23, 24, rows A-H for the maximum signal control and 1 ul of SAH, a known product and inhibitor of PRMT5/MEP50, was added to columns 11, 12, 23, 24, rows I-P for the minimum signal control. A cocktail (40 ul) containing the PRMT5/MEP50 enzyme and the peptide was added by Multidrop Combi (Thermo-Fisher). The compounds were allowed to incubate with PRMT5/MEP50 for 30 min at 25 degrees Celsius, then a cocktail (10 ul) containing 3H-SAM was added to initiate the reaction (final volume=51 ul). The final concentrations of the components were as follows: PRMT5/MEP50 was 4 nM, 3H-SAM was 75 nM, peptide was 40 nM, SAH in the minimum signal control wells was 100 uM, and the DMSO concentration was 1%. The assays were stopped by the addition of non-radioactive SAM (10 ul) to a final concentration of 600 uM, which dilutes the 3H-SAM to a level where its incorporation into the peptide substrate is no longer detectable. […]

## C[C@H](Oc1cccc2cccnc12)C(=O)NC[C@@H](O)CN1Cc2ccccc2C1
  IC50: in the range around 550 nM
